The record followed here is ChEMBL document CHEMBL6127104, “Prorocentin-5: A Cytotoxic Polyketide from the Benthic Marine Dinoflagellate Prorocentrum lima” (J Nat Prod, 2024).

SMILES strings stand for the structures. The source made the active and inactive calls. The calls are words filed in the database; no cut-off is given here.

Assay [1] concerns HepG2. Description: Induction of apoptosis in human HepG2 cells assessed as fold increase in early apoptotic cells at 1 uM incubated for 24 hrs by Annexin V-FITC/PI staining based flow cytometric analysis. It counts as functional. For orientation: Flow cytometry measures light scatter and fluorescence of single cells or particles in a stream.
In assay [2] the test system is N2a. The assay can be described thus: Induction of apoptosis in mouse Neuro2a cells assessed as viable cells at 0.1 uM incubated for 24 hrs by Annexin V-FITC/PI staining based analysis (reference value: 91.70 %). It counts as functional. Particulars: read-out: Activity.
Assay [3] has as its system HepG2. Description: Induction of cell cycle arrest in human HepG2 cells assessed as accumulation of cells at S phase at 0.1 uM incubated for 24 hrs by flow cytometric analysis (reference value: 27.8 %). It counts as functional.
The subject of assay [4] is HCT-116. The assay can be described thus: Induction of cell cycle arrest in human HCT-116 cells assessed as accumulation of cells at G0/G1 phase at 0.1 uM incubated for 24 hrs by flow cytometric analysis (reference value: 90.2 %). It counts as functional.
The subject of assay [5] is HepG2. Description: Induction of apoptosis in human HepG2 cells assessed as late apoptotic cells at 0.1 uM incubated for 24 hrs by Annexin V-FITC/PI staining based flow cytometric analysis (reference value: 2.05 %). It counts as functional.
Assay [6] has as its system HCT-116. The assay can be described thus: Induction of apoptosis in human HCT-116 cells assessed as viable cells at 0.1 uM incubated for 24 hrs by Annexin V-FITC/PI staining based flow cytometric analysis (reference value: 90.50 %). It counts as functional. Particulars: read-out: Activity.
In assay [7] the test system is N2a. The assay can be described thus: Induction of apoptosis in mouse Neuro2a cells assessed as necrotic cells at 1 uM incubated for 24 hrs by Annexin V-FITC/PI staining based analysis (reference value: 4.33 %). It counts as functional.
Assay [8] relates to HepG2. The assay can be described thus: Cytotoxicity against human HepG2 cells assessed as inhibition of cell proliferation AT 0.1 to 10 uM incubated for 24 hrs by MTT assay. It counts as functional, cell-based. Particulars: dose 0.1-10 µM. (Tetrazolium assays rely on reduction of a dye to a coloured formazan, in cell work by metabolically active cells.)
For assay [9], the system named is HCT-116. Description: Cytotoxicity against human HCT-116 cells assessed as inhibition of cell proliferation at 0.1 to 10 uM incubated for 24 hrs by MTT assay. It counts as functional, cell-based. Particulars: dose 0.1-10 µM.
Assay [10] relates to N2a. Description: Induction of apoptosis in mouse Neuro2a cells assessed as viable cells at 1 uM incubated for 24 hrs by Annexin V-FITC/PI staining based analysis (reference value: 91.70 %). Particulars: read-out: Activity. It counts as functional.
The subject of assay [11] is HCT-116. Description: Cytotoxicity against human HCT-116 cells assessed as inhibition of cell proliferation incubated for 24 hrs by MTT assay. It counts as functional, cell-based. Particulars: HCT-116, 24 h.
Assay [12] has as its system N2a. Description: Induction of cell cycle arrest in mouse Neuro2a cells assessed as accumulation of cells at G2/M phase at 1 uM incubated for 24 hrs by flow cytometric analysis (reference value: 8.0 %). It counts as functional.
Assay [13] has as its system HCT-116. Description: Induction of apoptosis in human HCT-116 cells assessed as viable cells at 1 uM incubated for 24 hrs by Annexin V-FITC/PI staining based flow cytometric analysis (reference value: 90.50 %). It counts as functional. Particulars: read-out: Activity.
Assay [14] concerns HCT-116. The assay can be described thus: Induction of cell cycle arrest in human HCT-116 cells assessed as accumulation of cells at G2/M phase at 1 uM incubated for 24 hrs by flow cytometric analysis (reference value: 30.6 %). It counts as functional.
For assay [15], the system named is HCT-116. Description: Induction of cell cycle arrest in human HCT-116 cells assessed as accumulation of cells at S phase at 0.1 uM incubated for 24 hrs by flow cytometric analysis (reference value: 19.2 %). It counts as functional.
Assay [16] deals with N2a. The assay can be described thus: Cytotoxicity against mouse Neuro2a cells assessed as inhibition of cell proliferation at 0.1 to 10 uM incubated for 24 hrs by MTT assay. It counts as functional, cell-based. Particulars: dose 0.1-10 µM.
Assay [17] has as its system N2a. The assay can be described thus: Induction of cell cycle arrest in mouse Neuro2a cells assessed as accumulation of cells at S phase at 0.1 uM incubated for 24 hrs by flow cytometric analysis (reference value: 30.5 %). It counts as functional.
Assay [18] relates to HepG2. Description: Induction of apoptosis in human HepG2 cells assessed as necrotic cells at 0.1 uM incubated for 24 hrs by Annexin V-FITC/PI staining based flow cytometric analysis (reference value: 3.02 %). It counts as functional.
The subject of assay [19] is HepG2. Description: Induction of apoptosis in human HepG2 cells assessed as necrotic cells at 1 uM incubated for 24 hrs by Annexin V-FITC/PI staining based flow cytometric analysis (reference value: 3.02 %). It counts as functional.
The test system of assay [20] is N2a. The assay can be described thus: Cytotoxicity against mouse Neuro2a cells assessed as inhibition of cell proliferation incubated for 24 hrs by MTT assay. It counts as functional, cell-based.

For the compound `CC(=O)CCCCC[C@@H](O)[C@H](C)C[C@H](C)CC[C@@H]1O[C@H]1C[C@@H]1CC[C@@H](/C=C/C=C/C[C@H](O)C[C@H]2C=C[C@@H](C=C(C)C)O2)O1`, the “fold change (FC)” value in the assay with HepG2 [1] was determined as 5.8. Further, the viability at 0.1 µM was found to be 76% with N2a [2] and 75.2% in the assay with HCT-116 [6]. The Activity was determined as 36% with HepG2 [3]; 48.4% with HCT-116 [4]; 15.02% in the assay on HepG2 [5]; 2.85% in the assay on N2a [7]; 13.7% in the assay on N2a [12]; 27.1% with HCT-116 [14]. Further, the Activity with HCT-116 [15] amounted to 18.7%; with N2a [17] it was 38.1%; in the assay on HepG2 [18] it was 1.88%; with HepG2 [19], 1.72%. Further, the outcome in the assay with HepG2 [8], in the assay with HCT-116 [9] and in the assay with N2a [16] was Active. In addition, the viability at 1 µM in the assay with N2a [10] is 55.1%; in the assay on HCT-116 [13], 58.5%. Besides, the results for the concentration for half-maximal inhibition (IC50) in the assay on HCT-116 [11] and in the assay on N2a [20] were 4.4 µM and 2800 nM, respectively.

Consider `C=C1[C@@H](O)[C@@H]2O[C@]3(CC[C@H](/C=C/[C@@H](C)[C@@H]4CC(C)=C[C@@]5(O[C@H](C[C@@](C)(O)C(=O)O)CC[C@H]5O)O4)O3)CC[C@H]2O[C@@H]1[C@@H](O)C[C@H](C)[C@H]1O[C@@]2(CCCCO2)CC[C@H]1C` [OKADAIC ACID], for which the “fold change (FC)” value in the assay on HepG2 [1] came to 4.9. Besides, the figures for the viability at 0.1 µM with N2a [2] and with HCT-116 [6] were 76.4% and 79.2%, respectively. For the same compound, the Activity was 36.8% in the assay on HepG2 [3]; 32.2% in the assay with HCT-116 [4]; 24.73% in the assay with HepG2 [5]; 0.57% in the assay with N2a [7]; 8.1% in the assay on N2a [12]; 20.4% with HCT-116 [14]. Moreover, the Activity was found to be 23% in the assay with HCT-116 [15], 56.6% with N2a [17], 9.05% in the assay on HepG2 [18] and 2.92% in the assay on HepG2 [19]. Besides, the viability at 1 µM in the assay on N2a [10] and with HCT-116 [13] was 59.7% each time.

In general, IC50 refers to the point on the concentration scale where inhibition reaches its midpoint.
